# PubChem BioAssay AID1949 (Southern Research Institute, 2009)
# Results filed as inconclusive are left out. Active and inactive are the calls of the source. No rule for the calls is given here.
# System: M. tuberculosis H37Rv growth inhibition
# Assay: Confirmatory growth inhibition assay against Mycobacterium tuberculosis H37Rv, potency (AID 1949);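 also: bacteria grown 7 days with compound before Alamar blue readout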
row,Compound,IC50
1,Cc1ccc(-c2nc(Nc3ccc(O)cc3)c3ccccc3n2)cc1,2.14 µg/mL
2,O=C(CCN1C(=O)C2C3C=CC(C3)C2C1=O)Oc1cccc2cccnc12 (centres undefined),14.8 µg/mL
3,CCCCC(=O)Nc1ccc(C(=O)N2CCN(c3cccc(C(F)(F)F)c3)CC2)cc1,9.86 µg/mL
4,COc1cc(CNCc2ccccc2)c(Br)cc1OC1CCCC1,10.5 µg/mL
5,CCOC(=O)N1CCN(CC(O)COc2ccc(C3CCCCC3)cc2)CC1 (centres undefined),3.69 µg/mL
6,CC(=O)c1ccc(NC(=O)NC(C)C23CC4CC(CC(C4)C2)C3)cc1 (centres undefined),19 µg/mL
7,CC(C)CN1C(=O)c2cccc3c([N+](=O)[O-])ccc(c23)C1=O,> 50 µg/mL (inactive)
8,Cc1nc2c(-c3ccc(Cl)cc3)cnn2c(N)c1-c1ccccc1,0.84 µg/mL
9,O=C(Nc1ccccc1-c1ccccc1)C(Cl)(Cl)Cl,2.44 µg/mL
10,Cc1occc1C(=O)Nc1sc(Cc2ccccc2)cc1C(N)=O,> 50 µg/mL (inactive)
11,COc1cc(C(=O)Nc2nc3c(s2)CCCC3)c(Br)c(OC)c1OC,2.8 µg/mL
12,CC(C)(C)c1ccc(C(=O)NC(=S)Nc2ccc(F)cc2)cc1Br,2.51 µg/mL
13,S=C(NCCc1ccc(Cl)cc1)Nc1ccc(Nc2ccccc2)cc1,2.09 µg/mL
14,CC1=CC(C)(C)Nc2ccc(OC(=O)c3cccnc3)cc21,2.88 µg/mL
15,Cc1cc(OCC(O)CNC(C)c2ccccc2)ccc1C(C)C (centres undefined),5.52 µg/mL
16,Cc1cnc(NC(=O)CSc2ccc(Cl)cc2)s1,1.67 µg/mL
17,O=C1C(=O)N(Cc2ccccc2Cl)c2ccc(Br)cc21,3.79 µg/mL
18,COC(=O)COc1ccc2c(-c3ccc(OC)cc3)cc(=O)oc2c1,0.86 µg/mL
19,COc1ccc(-c2[nH]c(-c3ccc([N+](=O)[O-])cc3)nc2-c2ccccc2)cc1,2.33 µg/mL
20,COc1ccc(C(C)(C)C)cc1NC(=S)Nc1ccc(Cl)c(Cl)c1,1.43 µg/mL

row,Compound,IC50
1,CCCOc1ccc(C2Oc3ccc(Br)cc3C=C2[N+](=O)[O-])cc1OC (centres undefined),1.48 µg/mL
2,CCOC(=O)COc1ccc(C(=O)NC2CCCCC2)cc1,1.09 µg/mL
3,Cc1nn(-c2nc3ccccc3[nH]2)c(N)c1-c1ccccc1,0.43 µg/mL
4,O=S(=O)(CCSc1nc2ccccc2s1)c1nc2ccccc2s1,7.23 µg/mL
5,O=[N+]([O-])/C=C/c1ccc(-c2ccc(F)cc2)o1,10.1 µg/mL
6,CCc1ccc(NC(=S)Nc2ccc(Cl)c(Cl)c2)cc1,1.38 µg/mL
7,O=C(Nc1ccc(Oc2ccccc2)cc1)Nc1cccc([N+](=O)[O-])c1,1.09 µg/mL
8,COc1ccc(Cl)cc1C(=O)Nc1ccc(N2CCN(Cc3ccccc3F)CC2)cc1,3.36 µg/mL
9,CC(C)(C)NC(=O)c1cc2cc(Cl)cc(Cl)c2oc1=O,2.54 µg/mL
10,COc1cc([N+](=O)[O-])ccc1NC(=S)Nc1ccc(F)c(Cl)c1,2.76 µg/mL
11,Cc1ccc2nc(Cc3nc4ccc(C)cc4[nH]3)[nH]c2c1,> 50 µg/mL (inactive)
12,CCN(CC)C(=S)NC(=O)c1ccc(F)cc1,3.03 µg/mL
13,Cc1sc2ncnc(N3CCN(CCOc4ccc(Cl)cc4)CC3)c2c1C,> 50 µg/mL (inactive)
14,O=C(CCN1CCC(c2ccccc2)C1)c1ccco1 (centres undefined),> 50 µg/mL (inactive)
15,O=C1c2cccc3cccc(c23)C(=O)N1CC1CCN(CC(O)COc2ccc3ccccc3c2)CC1 (centres undefined),0.84 µg/mL
16,CC(NS(=O)(=O)c1cccc(Cl)c1)C(=O)Nc1ccc(Br)cc1F (centres undefined),3 µg/mL
17,Cc1ccc(SCC(=O)Nc2ccc(C)c(C)c2)cc1,3.4 µg/mL
18,CCC(C)c1ccc(OCCn2ccnc2)cc1 (centres undefined),2.73 µg/mL
19,Cc1ccc(C(=O)NC(=S)N(C)Cc2ccccc2)cc1,2.53 µg/mL
20,Cc1ccc(-c2nn(-c3cc(N4CCN(C)CC4)ccc3[N+](=O)[O-])c(=O)c3ccccc23)cc1,8.15 µg/mL

row,Compound,IC50
1,O=C(Nc1cccc2ncccc12)c1ccc([N+](=O)[O-])o1,4.28 µg/mL
2,N#Cc1ccc(NC(=O)C23CC4CC(CC(C4)C2)C3)cc1,23.7 µg/mL
3,COc1ccc(C(=O)/C=C/Nc2cc(Cl)ccc2O)cc1OC,4.6 µg/mL
4,Cc1cccc(Nc2nc(NCc3ccco3)c3ccccc3n2)c1,1.86 µg/mL
5,O=C(Cc1ccc(F)cc1)Nc1ccc(Cl)c(C(F)(F)F)c1,1.2 µg/mL
6,OC(COc1ccc2ccccc2c1Br)Cn1ccnc1 (centres undefined),5.39 µg/mL
7,COc1ccc(NC(=O)C(Cc2c[nH]c3ccccc23)NC(C)=O)cc1 (centres undefined),3.08 µg/mL
8,CC(C(=O)OCc1ccccc1)n1cnc2scc(-c3ccc(Br)cc3)c2c1=O (centres undefined),1.51 µg/mL
9,CC(=O)Oc1cccc2ccc(/C=C/c3ccc(Cl)cc3)nc12,< 0.1 µg/mL
10,O=C(OCc1c(F)cccc1Cl)c1cc2ccccc2oc1=O,> 50 µg/mL (inactive)
11,Cc1ccc(Cl)cc1N1CCN(CC(O)COCC2COc3ccccc3O2)CC1 (centres undefined),5.17 µg/mL
12,Clc1ccc(OCCCCCn2ccnc2)c(Cl)c1,3.48 µg/mL
13,Cc1cccc(C(=O)Nc2nc3ccccc3[nH]2)c1,0.74 µg/mL
14,COc1ccccc1N1C(=O)c2cccc3cc([N+](=O)[O-])cc(c23)C1=O,0.16 µg/mL
15,Cc1cccc(C(C)(C)C)c1OCCOCCn1ccnc1,3.97 µg/mL
16,CN(C)CCCNc1nn2c(=O)c3c(-c4ccc(Cl)cc4)csc3nc2c2ccccc12,35.1 µg/mL
17,COc1ccc(-c2cc(-c3ccccc3)nc(-n3nc(C)cc3C)n2)cc1,4.22 µg/mL
18,CCOc1ccc(C(=O)Nc2ccc(N3CCN(C(=O)c4cccs4)CC3)c(Cl)c2)cc1Br,0.53 µg/mL
19,Cc1ccc(S(=O)(=O)Nc2ccc(NC(=O)Nc3cccc(C(F)(F)F)c3)cc2)cc1,1.13 µg/mL
